PubChem BioAssay AID651868 (The Scripps Research Institute Molecular Screening Center, 2012)

Molecular target: Protein-arginine deiminase type-1 (Homo sapiens) (UniProt Q9ULC6)
Assay: PubChem AID 651868
Conditions: recombinant PAD1, citrulline colorimetric, time-dependent inactivation; active compounds read high

Protein-arginine deiminase type-1 (Homo sapiens), sequence (Q9ULC6 whole entry, looked up): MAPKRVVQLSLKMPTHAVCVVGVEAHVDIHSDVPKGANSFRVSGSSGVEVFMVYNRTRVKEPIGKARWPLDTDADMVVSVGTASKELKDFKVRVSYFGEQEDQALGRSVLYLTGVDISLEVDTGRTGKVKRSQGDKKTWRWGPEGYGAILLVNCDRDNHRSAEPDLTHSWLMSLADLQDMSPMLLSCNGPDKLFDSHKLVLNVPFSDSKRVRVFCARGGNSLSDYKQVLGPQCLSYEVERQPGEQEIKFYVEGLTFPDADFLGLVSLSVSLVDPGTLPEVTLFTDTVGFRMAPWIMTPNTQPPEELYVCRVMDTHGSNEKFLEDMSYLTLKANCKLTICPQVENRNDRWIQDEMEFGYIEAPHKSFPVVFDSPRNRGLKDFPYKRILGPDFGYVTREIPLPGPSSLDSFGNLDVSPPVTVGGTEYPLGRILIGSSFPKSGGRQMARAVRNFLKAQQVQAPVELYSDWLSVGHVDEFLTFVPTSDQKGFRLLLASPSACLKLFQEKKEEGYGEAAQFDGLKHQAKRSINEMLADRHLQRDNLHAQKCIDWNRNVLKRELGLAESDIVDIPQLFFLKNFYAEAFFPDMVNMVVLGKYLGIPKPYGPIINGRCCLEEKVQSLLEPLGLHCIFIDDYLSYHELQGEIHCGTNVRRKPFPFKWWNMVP

NC1=CC(=O)c2ccc(-c3cccc(C(=O)O)n3)nc2C1=O
kinact/KI: 58.3 M⁻¹ s⁻¹
